The source made the active and inactive calls. No cut-off for these calls is given here.
Legend:
[1] = tested on: Human immunodeficiency virus 1; assay: Antiviral activity against HIV1 in human MT4 cells assessed as inhibition of virus-induced cytopathic effect at 100 ug/mL; type: functional, organism-based
MT4 = assay: Cytotoxicity against human MT4 cells at 100 ug/mL; type: cell-based

| SMILES | Activity [1] | Activity (MT4) |
| --- | --- | --- |
| COC(=O)C[C@H]1[C@]2(C)C[C@]3(O)[C@H]4[C@@H](O[C@]56CC(=O)O[C@@H](c7ccoc7)[C@]5(C)CC[C@H]([C@]13C)[C@]46O)[C@H]2O [khayanolide D] | inactive | Not Active |
| COC(=O)[C@H](O)[C@@H]1[C@@]2(C)[C@H]3CC[C@@]4(C)[C@H](c5ccoc5)OC(=O)C[C@@]45O[C@H]4C(=O)[C@@]1(C)C[C@]2(OC(C)=O)[C@@H]4[C@@]35O [khayanolide E] | inactive | Not Active |
| COC(=O)[C@]1(C)[C@@H]([C@@]2(C)C=CC(=O)C(C)(C)[C@@H]2CO[C@@H]2O[C@H](CO)[C@@H](O)[C@H](O)[C@H]2O)CC[C@@]2(C)[C@H](c3ccoc3)OC(=O)[C@H]3O[C@]321 [KHAYANOSIDE] | inactive | Not Active |

Source: ChEMBL document CHEMBL1150622, “Three new modified limonoids from Khaya senegalensis” (J Nat Prod, 2002)
